One series addresses T1, D2 dopamine Receptors (Rattus norvegicus, UniProt P61169).
T1 construct: Corpus Striatum from male Wistar rats (150-200 g) is homogenized; from tissue; host or cells: rat corpus striatum
Kind of series: In vitro inhibition of 3H-spiperone binding to D2 dopamine receptors. As to conditions: for pIC50: IC50 for inhibition of specific 3H-spiperone (0.2 nM) binding, corpus striatum of male Wistar rats. How it is done: I) In vitro Inhibition of ^3H-spiperone Binding to D2 dopamine Receptors
Tissue preparation: Preparations are performed at 0-4° C. unless otherwise indicated. Corpus Striatum from male Wistar rats (150-200 g) is homogenized for 5-10 sec in 10 ml KH2PO4 (50 mM, pH 7.4) using an Ultra-Turrax homogenizer. The suspension is centrifuged at 27,000×g for 15 min. The supematant is discarded and the pellet is resuspended in 50 mM KH2PO4, pH 7.4 (2000 ml per g of original tissue) and used for binding assays.
Assay: Aliquots of 0.5 ml tissue are added to 25 μl of test solution and 25 μl of ^3H-spiperone (0.2 nM, final concentration), mixed and incubated for 20 min at 37° C. Non-specific binding is determined using butadamol (1 μM, final concentration). After incubation the samples are placed on ice for 10 min. The assay is terminated by addition of 5 ml of ice-cold buffer and poured directly onto Whatman GF/C glass fibre filters (presoaked in 0.1% PEI for at least 20 min) under suction and immediately washed with 5 ml ice-cold buffer. The amount of radioactivity on the filters is determined by conventional liquid scintillation counting. Specific binding is total binding minus non-specific binding.

Series [1] deals with T2, D4.2 Dopamine Receptors (Human Recombinant) (Homo sapiens, UniProt P21917, DEL265-296).
T2 construct: purchased RBI D-195; host or cells: Chinese Hamster Ovary (CHO) cells, transfected; supplied as frozen membranes
T2 sequence (P21917 with tags, fused parts or gaps DEL265-296): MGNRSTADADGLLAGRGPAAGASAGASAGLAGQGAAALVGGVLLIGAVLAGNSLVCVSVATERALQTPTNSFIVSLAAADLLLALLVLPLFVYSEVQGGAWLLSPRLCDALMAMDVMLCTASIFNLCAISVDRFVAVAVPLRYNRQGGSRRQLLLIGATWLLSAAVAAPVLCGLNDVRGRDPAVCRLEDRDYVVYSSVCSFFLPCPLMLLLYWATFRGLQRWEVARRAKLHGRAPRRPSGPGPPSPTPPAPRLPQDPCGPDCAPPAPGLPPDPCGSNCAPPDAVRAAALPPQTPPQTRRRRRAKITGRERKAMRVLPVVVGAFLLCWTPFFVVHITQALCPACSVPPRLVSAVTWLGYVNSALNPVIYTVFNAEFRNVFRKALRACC
Kind of series: In vitro inhibition of 3H-spiperone binding to D4.2 dopamine receptors (human recombinant). As to conditions: for pIC50: IC50 for inhibition of specific 3H-spiperone (0.5 nM) binding, membranes of CHO cells transfected with human recombinant D4.2 receptor. How it is done:
II) In Vitro Inhibition of ^3H-spiperone Binding to D4.2 Dopamine Receptors (Human Recombinant)
Membranes are suspended in 10 mM Tris-HCl (pH 7.2) containing 2 mM EDTA, and stored tightly sealed at −80° C.
Asssay: The membranes are thawed and diluted in incubation buffer (50 mM Tns-HCl, pH 7.4, containing 120 mM NaCl, 5 mM KCl, 5 mM MgCl2 and 1 mM EDTA) —0.25 ml of membranes to 4.75 ml of incubation buffer. Aliquots of 100 μl of diluted membranes are added to 100 μl of test solution and 50 μl of ^3H-spiperone (0.5nM, final concentration). Finally, 750 μl incubation buffer is added and the assay mixture is incubated for 60 min at 25° C. Non-specific binding is determined using haloperidol (1 μM, final concentration). After incubation the assay is terminated by rapid filtration over GF/C glass fibre filters (presoaked in 0.1% PEI for at least 20 min), then washed twice with 5 ml ice cold 50 mM Tris-HCl in 0.9% NaCl at pH 7.4. The amount of radioactivity on the filters is determined by conventional liquid scintillation counting. Specific binding is total binding minus non-specific binding.

pIC50: −log10 of the molar value. Structures can show the parent of a compound that is named as a salt. A value given as a limit tells only on which side of the number the result lay.

By melting point is commonly meant the temperature, or range, at which the solid turns liquid. In general, pIC50 refers to the IC50 on a negative log10 scale, so that one unit is a factor of ten.

T1 sequence (P61169 whole entry): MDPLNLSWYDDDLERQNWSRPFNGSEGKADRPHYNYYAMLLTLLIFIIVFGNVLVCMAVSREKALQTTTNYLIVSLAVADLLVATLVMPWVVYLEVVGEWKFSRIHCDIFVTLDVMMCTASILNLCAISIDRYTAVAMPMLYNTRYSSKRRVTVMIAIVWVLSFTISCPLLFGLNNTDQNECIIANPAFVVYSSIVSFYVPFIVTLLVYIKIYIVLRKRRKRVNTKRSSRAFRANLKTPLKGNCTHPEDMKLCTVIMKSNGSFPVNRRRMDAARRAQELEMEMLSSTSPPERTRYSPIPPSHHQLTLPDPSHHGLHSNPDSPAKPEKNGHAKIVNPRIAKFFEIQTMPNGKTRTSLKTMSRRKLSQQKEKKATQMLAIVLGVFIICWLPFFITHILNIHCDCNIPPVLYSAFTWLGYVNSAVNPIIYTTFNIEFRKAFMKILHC

Molecule `COc1ccc(N)cc1OCC1CN(Cc2ccc(Cl)cc2)CCO1.O=C(O)C(=O)O` (racemic) had a melting point of 80 to 110 °C.

In the case of `COc1cc(Cl)ccc1OCC1CN(Cc2ccc(Cl)cc2)CCCO1` (racemic) [(±)-2-[(4-chloro-2-methoxyphenoxy)methyl]-4-(4-chlorobenzyl)perhydro oxazepine oxalic acid salt], the pIC50 at D2 dopamine Receptors was less than 5.00; in series [1], 8.60.

As for `COc1cc(Cl)ccc1OCC1CN(Cc2ccc(Cl)cc2)CCO1` (racemic) [(±)-4-(4-Chlorobenzyl)-2-[(4-chloro-2-methoxyphenoxy)methyl]morpholine oxalic acid salt], the figures for the negative logarithm of the IC50 (pIC50) (on D2 dopamine Receptors; in series [1]) were less than 5.00 and 8.40, respectively.

For the molecule `CCOc1ccccc1OCC1CNCCO1` (stereo not shown) [Viloxazine, 2-[(2-ethoxy-phenoxy)methyl]morpholine, reference compound], the “affinity for dopamine D2 receptors (in words)” value on D2 dopamine Receptors (qualitative statement) was “no or only low affinity”. For the same molecule, the “affinity for dopamine D4 receptors (in words)” value in series [1] (qualitative statement) is “no or only low affinity”.
